# Data taken from PubChem BioAssay AID623863 (Southern Research Specialized Biocontainment Screening …, 2012).
# The source made the active and inactive calls. How the calls were made is not given here.
# Target: Genome polyprotein (Dengue virus type 2 (strain 16681-PDK53)) (UniProt P29991)
# Test: Dengue-2 NS5 guanylylation inhibitors, dose response, biochemical, secondary assay (AID 623863)
# Details: Dengue-2 NS5 guanylylation inhibition
# Genome polyprotein (Dengue virus type 2 (strain 16681-PDK53)), sequence (P29991 whole entry, looked up): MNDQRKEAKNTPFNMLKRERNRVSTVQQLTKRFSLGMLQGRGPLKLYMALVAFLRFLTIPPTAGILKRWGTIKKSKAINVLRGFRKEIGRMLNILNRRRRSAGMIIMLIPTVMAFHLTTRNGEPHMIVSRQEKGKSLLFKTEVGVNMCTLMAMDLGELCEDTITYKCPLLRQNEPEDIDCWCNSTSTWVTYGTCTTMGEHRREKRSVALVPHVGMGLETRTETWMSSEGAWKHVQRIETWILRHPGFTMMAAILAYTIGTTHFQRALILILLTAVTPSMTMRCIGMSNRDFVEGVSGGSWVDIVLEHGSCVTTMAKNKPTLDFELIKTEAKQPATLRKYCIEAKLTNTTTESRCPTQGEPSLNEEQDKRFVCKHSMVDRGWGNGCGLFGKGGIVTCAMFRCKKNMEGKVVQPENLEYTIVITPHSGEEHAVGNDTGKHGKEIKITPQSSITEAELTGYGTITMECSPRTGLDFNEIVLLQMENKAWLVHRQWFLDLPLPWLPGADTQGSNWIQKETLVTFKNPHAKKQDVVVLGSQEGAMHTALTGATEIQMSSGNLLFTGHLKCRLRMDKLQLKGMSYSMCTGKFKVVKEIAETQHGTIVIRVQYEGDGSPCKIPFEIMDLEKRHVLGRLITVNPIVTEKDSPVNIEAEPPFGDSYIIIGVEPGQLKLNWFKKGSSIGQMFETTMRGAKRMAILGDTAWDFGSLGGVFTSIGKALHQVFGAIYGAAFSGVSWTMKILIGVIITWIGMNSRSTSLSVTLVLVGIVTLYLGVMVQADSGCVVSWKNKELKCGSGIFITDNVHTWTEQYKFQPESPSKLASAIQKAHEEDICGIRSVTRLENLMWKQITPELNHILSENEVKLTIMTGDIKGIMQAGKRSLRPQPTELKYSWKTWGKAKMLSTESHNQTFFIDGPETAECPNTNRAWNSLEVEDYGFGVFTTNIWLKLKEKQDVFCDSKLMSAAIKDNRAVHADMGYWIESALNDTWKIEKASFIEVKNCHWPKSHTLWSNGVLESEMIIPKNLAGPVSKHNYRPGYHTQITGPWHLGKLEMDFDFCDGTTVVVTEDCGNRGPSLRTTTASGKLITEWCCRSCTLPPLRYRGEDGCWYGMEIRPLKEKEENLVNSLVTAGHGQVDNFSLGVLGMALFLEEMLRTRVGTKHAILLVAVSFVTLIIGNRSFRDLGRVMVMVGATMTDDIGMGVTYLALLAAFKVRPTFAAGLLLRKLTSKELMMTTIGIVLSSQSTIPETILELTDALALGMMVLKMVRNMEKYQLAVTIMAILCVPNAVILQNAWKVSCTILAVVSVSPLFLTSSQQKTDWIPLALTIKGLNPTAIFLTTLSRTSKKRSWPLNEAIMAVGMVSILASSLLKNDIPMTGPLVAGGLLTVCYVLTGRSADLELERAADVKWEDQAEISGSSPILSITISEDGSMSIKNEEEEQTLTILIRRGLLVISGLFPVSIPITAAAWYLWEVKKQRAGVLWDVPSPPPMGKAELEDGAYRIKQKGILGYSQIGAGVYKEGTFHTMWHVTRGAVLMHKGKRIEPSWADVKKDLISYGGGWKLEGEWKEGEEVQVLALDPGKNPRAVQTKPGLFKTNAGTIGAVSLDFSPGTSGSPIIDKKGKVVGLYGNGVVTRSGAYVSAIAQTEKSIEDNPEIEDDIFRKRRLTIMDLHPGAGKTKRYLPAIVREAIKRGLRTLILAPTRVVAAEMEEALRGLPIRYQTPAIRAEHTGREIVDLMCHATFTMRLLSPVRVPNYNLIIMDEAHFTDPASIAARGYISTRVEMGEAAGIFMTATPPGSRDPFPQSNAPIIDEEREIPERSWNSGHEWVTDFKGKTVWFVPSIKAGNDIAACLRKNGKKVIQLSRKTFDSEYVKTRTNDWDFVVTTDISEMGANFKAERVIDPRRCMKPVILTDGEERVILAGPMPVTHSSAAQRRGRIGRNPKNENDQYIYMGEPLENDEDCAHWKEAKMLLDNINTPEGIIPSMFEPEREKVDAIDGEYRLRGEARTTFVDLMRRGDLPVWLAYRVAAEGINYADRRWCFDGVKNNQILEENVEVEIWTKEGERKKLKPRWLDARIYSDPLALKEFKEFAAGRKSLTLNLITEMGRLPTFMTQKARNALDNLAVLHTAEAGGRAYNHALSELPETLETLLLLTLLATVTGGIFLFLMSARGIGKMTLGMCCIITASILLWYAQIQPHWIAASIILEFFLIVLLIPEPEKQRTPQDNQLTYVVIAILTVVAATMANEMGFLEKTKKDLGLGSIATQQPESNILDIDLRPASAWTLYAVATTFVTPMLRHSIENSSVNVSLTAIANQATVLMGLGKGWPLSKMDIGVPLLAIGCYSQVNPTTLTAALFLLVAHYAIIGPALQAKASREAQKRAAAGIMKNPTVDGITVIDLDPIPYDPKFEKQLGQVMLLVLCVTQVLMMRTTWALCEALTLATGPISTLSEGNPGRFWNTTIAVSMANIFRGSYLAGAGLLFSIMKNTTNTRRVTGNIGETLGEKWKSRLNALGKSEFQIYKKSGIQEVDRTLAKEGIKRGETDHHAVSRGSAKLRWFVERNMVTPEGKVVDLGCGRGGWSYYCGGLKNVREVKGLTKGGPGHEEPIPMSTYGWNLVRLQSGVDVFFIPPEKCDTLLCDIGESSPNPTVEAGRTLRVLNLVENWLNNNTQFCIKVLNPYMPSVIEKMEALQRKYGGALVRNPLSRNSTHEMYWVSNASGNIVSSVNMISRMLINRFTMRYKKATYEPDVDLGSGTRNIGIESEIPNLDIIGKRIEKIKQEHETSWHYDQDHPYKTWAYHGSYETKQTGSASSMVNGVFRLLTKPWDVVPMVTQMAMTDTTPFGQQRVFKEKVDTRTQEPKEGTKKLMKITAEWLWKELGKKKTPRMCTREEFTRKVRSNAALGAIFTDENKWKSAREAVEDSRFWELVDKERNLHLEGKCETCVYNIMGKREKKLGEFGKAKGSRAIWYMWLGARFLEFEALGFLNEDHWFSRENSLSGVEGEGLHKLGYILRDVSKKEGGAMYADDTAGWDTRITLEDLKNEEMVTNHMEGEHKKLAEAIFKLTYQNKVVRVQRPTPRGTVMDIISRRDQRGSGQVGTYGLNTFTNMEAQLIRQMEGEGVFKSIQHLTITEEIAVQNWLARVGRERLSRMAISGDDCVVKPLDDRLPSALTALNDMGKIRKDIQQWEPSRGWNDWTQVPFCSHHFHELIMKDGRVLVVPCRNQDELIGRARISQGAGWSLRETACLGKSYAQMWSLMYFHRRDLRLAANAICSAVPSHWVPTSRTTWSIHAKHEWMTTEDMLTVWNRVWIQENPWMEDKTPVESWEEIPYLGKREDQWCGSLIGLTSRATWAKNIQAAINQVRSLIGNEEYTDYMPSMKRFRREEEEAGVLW
row,Structure (SMILES),IC50
1,Cc1ccc(S(=O)(=O)Nc2cc(Sc3nc(C)cc(C)n3)c(O)c3ccccc23)cc1,46 µM
2,O=[N+]([O-])c1cccc(S(=O)(=O)Nc2cc(SCc3ccccc3)c(O)c3ccccc23)c1,3.03 µM
3,O=S(=O)(Nc1cc(SCc2ccccc2)c(O)c2ccccc12)c1ccc(Cl)cc1,4.23 µM
4,Cn1c(=O)c2[nH]c(-c3ccc(Cl)cc3)c(O)c2n(C)c1=O,7.51 µM
5,O=S(=O)(Nc1cc(Sc2ccccc2)c(O)c2ccccc12)c1ccc(F)cc1,47.9 µM
6,O=[N+]([O-])c1cccc(S(=O)(=O)Nc2cc(Sc3nc4ccccc4s3)c(O)c3ccccc23)c1,18.3 µM

# Other lines, results leading:
row,IC50,Structure (SMILES)
1,3.33 µM,O=C(O)CSc1cc(NS(=O)(=O)c2cccc([N+](=O)[O-])c2)c2ccccc2c1O
2,2.37 µM,O=C(O)CSc1cc(NS(=O)(=O)c2ccc(Br)cc2)c2ccccc2c1O
3,7.89 µM,O=C(O)CSc1cc(NS(=O)(=O)c2ccc(Cl)cc2)c2ccccc2c1O

# Same assay, conditions: Dengue-2 NS5 guanylylation inhibition, at 50 µM (top of the series)
row,Structure (SMILES),inhibition
1,Cc1ccc(S(=O)(=O)Nc2cc(SCC(=O)O)c(O)c3ccccc23)cc1,inactive
2,O=C(O)CSc1cc(NS(=O)(=O)c2ccc(F)cc2)c2ccccc2c1O,inactive
3,O=S(=O)(Nc1cc(Sc2ncn[nH]2)c(O)c2ccccc12)c1ccc(F)cc1,inactive
4,Cc1cc(F)ccc1S(=O)(=O)Nc1cc(SCC(=O)O)c(O)c2ccccc12,inactive
5,Cc1cc(C)c(S(=O)(=O)Nc2cc(SCC(=O)O)c(O)c3ccccc23)c(C)c1,inactive
